The source of these data is ChEMBL document CHEMBL2303647, “Data associated with the publication PLoS ONE, 8(3), e57888, (2013) PMID: 23505445. Compounds: GSK PKIS; Assays: NIH NCATS”.

As usually defined, the AC50 is the concentration giving half of the maximal activity seen.

The structures appear in SMILES notation.

The target in test [1] is T1, Coelenterazine h 2-monooxygenase (Renilla reniformis, UniProt P27652).
T1 sequence (P27652 whole entry): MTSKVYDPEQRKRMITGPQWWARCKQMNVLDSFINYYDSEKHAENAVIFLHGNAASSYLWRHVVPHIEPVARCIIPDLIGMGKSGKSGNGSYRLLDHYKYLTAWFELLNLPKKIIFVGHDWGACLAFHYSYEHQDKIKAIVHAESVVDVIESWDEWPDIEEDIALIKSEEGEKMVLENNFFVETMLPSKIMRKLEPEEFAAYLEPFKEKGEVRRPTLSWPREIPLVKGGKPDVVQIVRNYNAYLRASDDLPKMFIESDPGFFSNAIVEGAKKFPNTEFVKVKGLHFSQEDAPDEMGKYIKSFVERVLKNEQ
Description: GSK_PKIS: Inhibition of Sea Pansy Luciferase (Data from PubChem: AID 652015) [NIH NCATS]

Test [2] has as its target Luciferin 4-monooxygenase (Photinus pyralis, UniProt P08659).
Description: GSK_PKIS: Inhibition of Firefly Luciferase (Data from PubChem: AID 652016) [NIH NCATS]

Sequence of Luciferin 4-monooxygenase (P08659 whole entry): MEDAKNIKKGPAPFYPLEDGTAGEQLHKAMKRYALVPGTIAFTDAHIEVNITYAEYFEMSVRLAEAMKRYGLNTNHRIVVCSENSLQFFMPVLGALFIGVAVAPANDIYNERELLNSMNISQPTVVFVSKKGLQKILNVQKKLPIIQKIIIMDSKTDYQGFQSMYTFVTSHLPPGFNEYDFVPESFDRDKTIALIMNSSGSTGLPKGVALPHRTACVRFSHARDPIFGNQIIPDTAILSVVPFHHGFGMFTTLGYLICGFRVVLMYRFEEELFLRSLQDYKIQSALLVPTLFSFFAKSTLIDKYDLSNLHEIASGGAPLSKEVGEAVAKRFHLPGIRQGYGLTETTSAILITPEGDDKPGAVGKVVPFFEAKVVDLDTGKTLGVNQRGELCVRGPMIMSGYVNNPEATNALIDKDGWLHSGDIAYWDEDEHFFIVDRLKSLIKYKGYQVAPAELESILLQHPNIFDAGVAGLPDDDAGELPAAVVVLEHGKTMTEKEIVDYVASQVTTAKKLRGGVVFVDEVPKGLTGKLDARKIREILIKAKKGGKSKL

As to `CS(=O)(=O)CCNCc1ccc(-c2ccc3ncnc(Nc4ccc(OCc5cccc(C(F)(F)F)c5)cc4)c3c2)o1.Cl` [GW567808A], the values for the AC50 result in test [1] and in test [2] were “Phenotype: Activator; Curve_Description: None” and “Phenotype: Inactive; Curve_Description: None”, respectively.

As for `COc1ccc(-c2nn3ncccc3c2-c2ccnc(Nc3ccc4c(c3)OCCO4)n2)cc1` [GW827106X], the AC50 entry in test [1] and in test [2] was “Phenotype: Inactive; Curve_Description: None” throughout.

As to `Cc1ccc(NC(=O)c2ccnc(N3CCCC3)c2)cc1-c1ccc(C(=O)NCC2CC2)cc1` [GW769076X], the AC50 in test [1] (read-out: AC50) is 29.1 µM; in test [2], “Phenotype: Inactive; Curve_Description: None”.

Consider `O=C1Nc2ccccc2/C1=C1\CCc2cc(O)ccc21`, for which the AC50 is 20.6 µM in test [1] (read-out: AC50) and 5.17 µM in test [2] (read-out: AC50).

On to `NC(=O)c1cc(-c2ccncc2)cc(-c2ccccc2)c1N` [GSK-625137A], for which the concentration at half-maximal activity (AC50) result in test [1] was “Phenotype: Inactive; Curve_Description: None”; in test [2] (read-out: AC50), 41.1 µM.

Regarding `Cc1ccc2c(-c3ccnc(Nc4ccccc4)n3)c(-c3ccc(F)cc3)nn2n1` [GW833373X], the AC50 result in test [1] and in test [2] was “Phenotype: Inactive; Curve_Description: None” in each case.

For `Cc1cc(-c2ccccn2)cc(C)c1/C=C/c1cncc(-c2nn[nH]n2)c1.Cl` [GW459057A], the AC50 is 32.6 µM in test [1] (read-out: AC50) and “Phenotype: Inactive; Curve_Description: None” in test [2].

In the case of `COc1cc(N2CCN(C(C)C)CC2)ccc1Nc1nc(Nc2ccc(F)cc2C(N)=O)c2cc[nH]c2n1` [GSK-1220512A], the AC50 was 20.6 µM in test [1] (read-out: AC50) and 25.9 µM in test [2] (read-out: AC50).

For `NS(=O)(=O)c1ccc(N/N=C2\C(=O)Nc3ccc(Cl)cc32)cc1` [GW280670X], the AC50 is 36.6 µM in test [1] (read-out: AC50) and 41.1 µM in test [2] (read-out: AC50).

Turning to `CN(C)C(=O)O[C@H]1CN[C@H](C#Cc2cc3ncnc(Nc4ccc(OCc5cccc(F)c5)c(Cl)c4)c3s2)C1` [GSK-182497A], the figures for the AC50 entry in test [1] and in test [2] (read-out: AC50) were “Phenotype: Inactive; Curve_Description: None” and 29.1 µM, respectively.

In the case of `CC(C)c1ccc(Nc2nccc(-c3cnn4ncccc34)n2)cc1` [GW805758X], the AC50 entry in test [1] was “Phenotype: Inactive; Curve_Description: None”; in test [2] (read-out: AC50), 20.6 µM.

Take `COC(=O)c1sc(-n2cnc3cc(OC)c(OC)cc32)cc1OCc1ccccc1C(F)(F)F` [GSK-1030058A]: the AC50 entry in test [1] and in test [2] was “Phenotype: Inactive; Curve_Description: None” in each case.

As for `Cl.[O-][S+]1CCN(Cc2ccc(-c3ccc4ncnc(Nc5ccc(OCc6ccccc6)c(F)c5)c4c3)o2)CC1` [GW576924A], the AC50 entry in test [1] was “Phenotype: Inactive; Curve_Description: None”; in test [2] (read-out: AC50), 16.3 µM.

Turning to `CCN(CC)S(=O)(=O)c1ccc(OC)c(Nc2ncc(-c3ccccc3)o2)c1` [GW572401X], the AC50 entry in test [1] and in test [2] was “Phenotype: Inactive; Curve_Description: None” each time.

With `O=C1NC(=O)C(c2cccc(Cl)c2)=C1Nc1ccc(O)c(Cl)c1`, the AC50 in test [1] (read-out: AC50) is 36.6 µM; in test [2], “Phenotype: Inactive; Curve_Description: None”.

As to `Cc1cccc2c1NC(=O)/C2=N\Nc1ccc(S(N)(=O)=O)cc1` [GW282536X], the results for the AC50 in test [1] (read-out: AC50) and in test [2] were 18.3 µM and “Phenotype: Inactive; Curve_Description: None”, respectively.

On to `NC(=O)c1cccc(Nc2nccc(Nc3cccc4[nH]ncc34)n2)c1` [GW782612X], for which the half-maximal activity concentration (AC50) result in test [1] is “Phenotype: Inactive; Curve_Description: None”; in test [2] (read-out: AC50), 13 µM.

For the molecule `NS(=O)(=O)c1ccc(N/N=C2\C(=O)Nc3ccc(C(=O)NCCCn4ccnc4)cc32)cc1` [GW290597X], the AC50 in test [1] (read-out: AC50) is 18.3 µM; in test [2] it was “Phenotype: Inactive; Curve_Description: None”.

As for `CN1CCN(Cc2ccc(-c3cc4ncnc(Nc5ccc(OCc6cccc(F)c6)c(Cl)c5)c4s3)o2)CC1` [GW784684X], the AC50 in test [1] (read-out: AC50) is 20.6 µM; in test [2], “Phenotype: Inactive; Curve_Description: None”.
